Data as given in US10550102B2, “Indane and indoline derivatives and the use thereof as soluble guanylate cyclase activators” (NOVARTIS AG, priority 2014, dated 2020).
Where two headings read alike, the source gives them in different places.

Experiments:
[1] = molecular target: soluble guanylate cyclase (human GUCYA3 and GUCYB3) overexpressed in CHO cells (Homo sapiens (Human), UniProt Q02153); assay: CHO cellular assay (cGMP production, Cisbio cGMP HTRF kit); format: cell-based; settings: CHO GUCY clone 8E10, cGMP production, assay buffer with 1 mM IBMX and 20 uM ODQ, 1 h room temperature; minimum quantification limit 0.5 nM (listed 0.5 nM means ≤0.5 nM)
Procedure, shortened: (§1)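 EC50 was derived by 4-parameter sigmoidal fit of cGMP levels, read by HTRF against a standard curve. Compounds were applied for 1 h at room temperature, in buffer with 20 uM ODQ, 1 mM IBMX and 0.1% BSA (0.5% DMSO final). The cells were a stable CHO-K1 line (clone 8E10) overexpressing human GUCYA3 and GUCYB3, seeded at 3000/well.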

[2] = molecular target: soluble guanylate cyclase (human GUCYA3 and GUCYB3) overexpressed in CHO cells (Homo sapiens (Human), UniProt Q02108+Q02153); assay: as above; format: cell-based
Procedure, shortened: as §1

[3] = CHO GUCY clone 8E10, cGMP production, assay buffer with 1 mM IBMX and 20 uM ODQ, 1 h room temperature, minimum quantification limit 0.5 nM (listed 0.5 nM means ≤0.5 nM), read-out: EC50

soluble guanylate cyclase (human GUCYA3 and GUCYB3) overexpressed in CHO cells (Homo sapiens (Human), UniProt Q02153), sequence (Q02108 whole entry partner): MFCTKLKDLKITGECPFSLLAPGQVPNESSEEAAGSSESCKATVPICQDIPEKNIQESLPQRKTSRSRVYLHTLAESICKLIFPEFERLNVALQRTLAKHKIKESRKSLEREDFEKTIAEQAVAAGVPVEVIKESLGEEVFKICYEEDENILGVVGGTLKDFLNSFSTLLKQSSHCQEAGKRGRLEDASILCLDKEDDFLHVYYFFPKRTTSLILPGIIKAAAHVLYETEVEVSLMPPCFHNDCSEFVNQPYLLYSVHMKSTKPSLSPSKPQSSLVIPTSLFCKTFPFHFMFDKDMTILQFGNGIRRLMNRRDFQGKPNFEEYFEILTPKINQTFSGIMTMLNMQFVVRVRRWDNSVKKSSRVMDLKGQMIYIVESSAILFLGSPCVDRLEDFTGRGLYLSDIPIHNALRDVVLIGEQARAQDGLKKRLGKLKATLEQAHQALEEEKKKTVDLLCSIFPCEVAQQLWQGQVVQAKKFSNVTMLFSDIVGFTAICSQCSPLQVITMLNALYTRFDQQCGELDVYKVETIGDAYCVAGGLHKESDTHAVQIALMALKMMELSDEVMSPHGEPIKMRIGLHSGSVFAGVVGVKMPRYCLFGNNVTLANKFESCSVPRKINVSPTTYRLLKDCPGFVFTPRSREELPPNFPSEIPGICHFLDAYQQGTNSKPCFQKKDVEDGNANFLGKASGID
soluble guanylate cyclase (human GUCYA3 and GUCYB3) overexpressed in CHO cells (Homo sapiens (Human), UniProt Q02153), sequence (Q02153 whole entry): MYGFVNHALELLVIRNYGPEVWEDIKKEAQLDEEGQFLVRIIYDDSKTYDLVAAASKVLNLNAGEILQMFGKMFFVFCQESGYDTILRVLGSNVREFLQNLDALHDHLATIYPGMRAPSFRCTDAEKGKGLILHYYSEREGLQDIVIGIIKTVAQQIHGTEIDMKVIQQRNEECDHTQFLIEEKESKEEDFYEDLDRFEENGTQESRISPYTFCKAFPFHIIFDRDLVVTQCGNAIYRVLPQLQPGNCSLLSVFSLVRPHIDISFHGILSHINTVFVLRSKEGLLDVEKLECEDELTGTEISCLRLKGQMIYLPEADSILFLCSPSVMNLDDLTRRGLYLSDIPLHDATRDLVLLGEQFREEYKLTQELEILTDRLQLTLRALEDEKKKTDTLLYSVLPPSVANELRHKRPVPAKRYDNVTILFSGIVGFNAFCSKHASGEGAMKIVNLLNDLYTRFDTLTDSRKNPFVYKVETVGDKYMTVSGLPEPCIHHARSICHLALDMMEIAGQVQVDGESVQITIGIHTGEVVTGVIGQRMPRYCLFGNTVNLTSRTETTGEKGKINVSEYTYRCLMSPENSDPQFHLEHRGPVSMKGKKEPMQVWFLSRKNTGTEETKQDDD
soluble guanylate cyclase (human GUCYA3 and GUCYB3) overexpressed in CHO cells (Homo sapiens (Human), UniProt Q02108+Q02153), sequence (Q02108 whole entry partner): as the sequence (Q02108 whole entry partner) above
soluble guanylate cyclase (human GUCYA3 and GUCYB3) overexpressed in CHO cells (Homo sapiens (Human), UniProt Q02108+Q02153), sequence (Q02153 whole entry): as the sequence (Q02153 whole entry) above

| EC50 [1] [nM] | Molecule | other results |
| --- | --- | --- |
| ≤ 0.5 | CCc1cc(CN2CC(C)c3cccc(-c4cccc(-n5ncc(C(=O)O)c5CC)n4)c32)ccc1C1CCN(C(=O)[C@H](C)O)CC1 (single isomer, unassigned) [Example 17b] | – |
| ≤ 0.5 | CCc1cc(O[C@H]2CCc3cccc(-c4cccc(-n5ncc(C(=O)O)c5CC)n4)c32)ccc1C1CCN(C(=O)C(C)CCO)CC1 (single isomer, unassigned) [Example 32b] | – |
| ≤ 0.5 | CCc1cc(CN2CC(C)c3cccc(-c4cccc(-n5ncc(C(=O)O)c5CC)n4)c32)ccc1C1CCN(C(=O)C2CC2)CC1 (single isomer, unassigned; (-)) [(−)-20-1, (−)-1-(6-(1-(4-(1-(Cyclopropanecarbonyl)piperidin-4-yl)-3-ethylbenzyl)-3-methylindolin-7-yl)pyridin-2-yl)-5-ethyl-1H-pyrazole-4-carboxylic acid] | – |
| ≤ 0.5 | CCc1cc(CN2CC(C)c3cccc(-c4cccc(-n5ncc(C(=O)O)c5C)n4)c32)ccc1C1CCN(C(=O)C2CC2)CC1 (single isomer, unassigned; (-)) [(−)-20-3, (−)-1-(6-(1-(4-(1-(Cyclopropanecarbonyl)piperidin-4-yl)-3-ethylbenzyl)-3-methylindolin-7-yl)pyridin-2-yl)-5-methyl-1H-pyrazole-4-carboxylic acid] | – |
| 6.9 | Cc1cc(C2CCN(C(=O)C3CC3)CC2)ccc1OC1CCc2cccc(-c3cccc(-n4ncc(C(=O)O)c4C(F)(F)F)n3)c21 (single isomer, unassigned; (-)) [Example 3b] | – |
| 116 | O=C(O)c1cnn(-c2cccc(-c3cccc4c3C(Oc3ccc5c(c3)CCN(Cc3ccccn3)C5)CC4)n2)c1C(F)(F)F (single isomer, unassigned; (-)) [Example 4b, (−)-1-(6-(3-((2-(Pyridin-2-ylmethyl)-1,2,3,4-tetrahydroisoquinolin-6-yl)oxy)-2,3-dihydro-1H-inden-4-yl)pyridin-2-yl)-6-(trifluoromethyl)-1H-pyrazole-4-carboxylic Acid] | – |
| ≤ 0.5 | CCc1cc(CN2CC(C)c3cccc(-c4cccc(-n5ncc(C(=O)O)c5C(F)(F)F)n4)c32)ccc1C1CCN(C(=O)C2CC2)CC1 (single isomer, unassigned; (-)) [Example 19b, (−)-1-(6-(1-(4-(1-(Cyclopropanecarbonyl)piperidin-4-yl)-3-ethylbenzyl)-3-methylindolin-7-yl)pyridin-2-yl)-5-(trifluoromethyl)-1H-pyrazole-4-carboxylic Acid] | – |
| 11 | CCc1cc(NC2CCc3cccc(-c4cccc(-n5ncc(C(=O)O)c5CC)n4)c32)ccc1C1CCN(C(=O)[C@H](C)O)CC1 (single isomer, unassigned; (-)) [Example 48b] | – |
| 20 | CCC[C@H](O)C(=O)N1CCC(c2ccc(NC3CCc4cccc(-c5cccc(-n6ncc(C(=O)O)c6CC)n5)c43)cc2CC)CC1 (single isomer, unassigned; (-)) [Example 49b] | – |
| 15 | O=C(O)c1cnn(-c2cccc(-c3cccc4c3C(Oc3ccc(C5CCN(C(=O)C6CC6)CC5)cc3C(F)(F)F)CC4)n2)c1C(F)(F)F (single isomer, unassigned; enantiomer-1) [61. b). (enantiomer-1), (+)- or (−)-1-(6-(3-(4-(1-(Cyclopropanecarbonyl)piperidin-4-yl)-2-(trifluoromethyl)phenoxy)-2,3-dihydro-1H-inden-4-yl)pyridin-2-yl)-5-(trifluoromethyl)-1H-pyrazole-4-carboxylic acid] | – |
| 2 | O=C(O)c1cnn(-c2cccc(-c3cccc4c3C(Oc3ccc(C5CCN(C(=O)C6CC6)CC5)cc3C(F)(F)F)CC4)n2)c1C(F)(F)F (single isomer, unassigned; enantiomer-2) [61. b). (enantiomer-2), (−)- or (+)-1-(6-(3-(4-(1-(cyclopropanecarbonyl)piperidin-4-yl)-2-(trifluoromethyl)phenoxy)-2,3-dihydro-1H-inden-4-yl)pyridin-2-yl)-5-(trifluoromethyl)-1H-pyrazole-4-carboxylic acid] | – |
| ≤ 0.5 | Cc1cc(C2CCN(C(=O)C3CC3)CC2)ccc1CN1CCc2cccc(-c3cccc(-n4ncc(C(=O)O)c4C)n3)c21 [Example 21-1, 1-(6-(1-(4-(1-(Cyclopropanecarbonyl)piperidin-4-yl)-2-methylbenzyl)indolin-7-yl)pyridin-2-yl)-5-methyl-1H-pyrazole-4-carboxylic acid] | – |
| – | COCCOC(=O)N1CCC(c2ccc(NC3CCc4cccc(-c5cccc(-n6ncc(C(=O)O)c6C)n5)c43)c(C)c2)CC1 (stereo not shown) [Example 52-5] | EC50 [2, 3]: 1 nM |
| – | C=C(C)OC(=O)N1CCC(c2ccc(NC3CCc4cccc(-c5cccc(-n6ncc(C(=O)O)c6C)n5)c43)c(C)c2)CC1 (stereo not shown) [Example 52-6, 5-Methyl-1-(6-(3-((2-methyl-4-(1-((prop-1-en-2-yloxy)carbonyl)piperidin-4-yl)phenyl)amino)-2,3-dihydro-1H-inden-4-yl)pyridin-2-yl)-1H-pyrazole-4-carboxylic acid] | EC50 [2, 3]: 1.4 nM |
| – | CCc1cc(O[C@H]2CCc3cccc(-c4cccc(-n5ncc(C(=O)O)c5CC)n4)c32)ccc1C1CCN(C(=O)OCc2ccccc2)CC1 [Example 64-1, (S)-1-(6-(3-(4-(1-((Benzyloxy)carbonyl)pipendin-4-yl)-3-ethylphenoxy)-2,3-dihydro-1H-inden-4-yl)pyridin-2-yl)-5-ethyl-1H-pyrazole-4-carboxylic acid] | EC50 [2, 3]: 2 nM |
| – | CCc1cc(O[C@H]2CCc3cccc(-c4cccc(-n5ncc(C(=O)O)c5CC)n4)c32)ccc1C1CCN(C(=O)OCC(C)C)CC1 [Example 64-2, (S)-5-Ethyl-1-(6-(3-(3-ethyl-4-(1-(isobutoxycarbonyl)piperidin-4-yl)phenoxy)-2,3-dihydro-1H-inden-4-yl)pyridin-2-yl)-1H-pyrazole-4-carboxylic acid] | EC50 ([2]; EC50 (nM)): 3 nM |
| – | CCc1cc(O[C@H]2CCc3cccc(-c4cccc(-n5ncc(C(=O)O)c5CC)n4)c32)ccc1C1CCN(C(=O)OC(C)C)CC1 [Example 64-3, (S)-5-Ethyl-1-(6-(3-(3-ethyl-4-(1-(isopropoxycarbonyl)piperidin-4-yl)phenoxy)-2,3-dihydro-1H-inden-4-yl)pyridin-2-yl)-1H-pyrazole-4-carboxylic acid] | EC50 ([2]; EC50 (nM)): 1 nM |
| – | CCCOC(=O)N1CCC(c2ccc(O[C@H]3CCc4cccc(-c5cccc(-n6ncc(C(=O)O)c6CC)n5)c43)cc2CC)CC1 [Example 64-4, (S)-5-Ethyl-1-(6-(3-(3-ethyl-4-(1-(propoxycarbonyl)piperidin-4-yl)phenoxy)-2,3-dihydro-1H-inden-4-yl)pyridin-2-yl)-1H-pyrazole-4-carboxylic acid] | EC50 ([2]; EC50 (nM)): ≤ 0.5 nM |
| – | C=CCOC(=O)N1CCC(c2ccc(O[C@H]3CCc4cccc(-c5cccc(-n6ncc(C(=O)O)c6CC)n5)c43)cc2CC)CC1 [Example 64-5, (S)-1-(6-(3-(4-(1-((Allyloxy)carbonyl)piperidin-4-yl)-3-ethylphenoxy)-2,3-dihydro-1H-inden-4-yl)pyridin-2-yl)-5-ethyl-1H-pyrazole-4-carboxylic acid] | EC50 ([2]; EC50 (nM)): ≤ 0.5 nM |
| – | CCc1cc(O[C@H]2CCc3cccc(-c4cccc(-n5ncc(C(=O)O)c5CC)n4)c32)ccc1C1CCN(C(=O)OCC2CC2)CC1 [Example 64-6, (S)-1-(6-(3-(4-(1-((Cyclopropylmethoxy)carbonyl)piperidin-4-yl)-3-ethylphenoxy)-2,3-dihydro-1H-inden-4-yl)pyridin-2-yl)-5-ethyl-1H-pyrazole-4-carboxylic acid] | EC50 [2, 3]: 1.4 nM |
| – | CCc1cc(O[C@H]2CCc3cccc(-c4cccc(-n5ncc(C(=O)O)c5CC)n4)c32)ccc1C1CCN(S(C)(=O)=O)CC1 [Example 64-8, (S)-5-Ethyl-1-(6-(3-(3-ethyl-4-(1-(methylsulfonyl)piperidin-4-yl)phenoxy)-2,3-dihydro-1H-inden-4-yl)pyridin-2-yl)-1H-pyrazole-4-carboxylic acid] | EC50 [2, 3]: ≤ 0.5 nM |
| 3 | (−)-Ethyl-1-(6-(3-((3-ethyl-4-(1-(isopropoxycarbonyl)piperidin-4-yl)phenyl)amino)-2,3-dihydro-1H-inden-4-yl)pyridin-2-yl)-1H-pyrazole-4-carboxylic Acid [Example 51b] | – |
